Results reported in the supplement of paper PMC6045584.
± gives the standard deviation of the averaged measurements.

Experiments:
[1] = compound: COc1cc2nccc(Oc3ccc(NC(=O)NC4CC4)c(Cl)c3)c2cc1C(N)=O [LENVATINIB]; assay: surviving fraction relative to DMSO-only wells; higher = less growth inhibition; conditions: exposure time: 5 days
Outline: (§1)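 Surviving fraction is CellTiter-Glo luminescence divided by the median of wells given DMSO only. For this, log-phase tumour cell lines went into 384-well plates at 250–500 cells per well and, 24 hours later, into five days of continuous inhibitor exposure at 0.5, 1, 5, 10, 50, 100, 500 and 1000 nM. Lines were screened three times and retained only if replicate Pearson r >0.7 and median Z' >0.3.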

[2] = compound: C[C@@H]1CN(CC(=O)Nc2ccc3c(c2)Cc2cccc(-c4cc(=O)cc(N5CCOCC5)o4)c2S3)C[C@H](C)O1; assay: as above; conditions: exposure time: 5 days
Outline: as §1

Row | Test System | surviving fraction ([1]; 0.5 nM) | surviving fraction ([1]; 1 nM) | surviving fraction ([1]; 5 nM) | surviving fraction ([1]; 10 nM) | surviving fraction ([1]; 50 nM) | surviving fraction ([1]; 100 nM) | surviving fraction ([1]; 500 nM) | surviving fraction ([1]; 1000 nM) | surviving fraction ([2]; 0.5 nM) | surviving fraction ([2]; 1 nM) | surviving fraction ([2]; 5 nM) | surviving fraction ([2]; 10 nM) | surviving fraction ([2]; 50 nM) | surviving fraction ([2]; 100 nM) | surviving fraction ([2]; 500 nM) | surviving fraction ([2]; 1000 nM)
1 | CADOES1 SOFT TISSUE | 0.975 ± 0.14 | 0.885 ± 0.14 | 0.859 ± 0.14 | 0.885 ± 0.049 | 0.897 ± 0.1 | 0.836 ± 0.11 | 0.839 ± 0.075 | 0.842 ± 0.17 | 0.951 ± 0.15 | 0.965 ± 0.065 | 0.974 ± 0.07 | 0.981 ± 0.084 | 1.11 ± 0.055 | 0.995 ± 0.1 | 1.01 ± 0.096 | 1.02 ± 0.032
2 | CAL51 BREAST | 0.974 ± 0.023 | 0.975 ± 0.011 | 0.983 ± 0.011 | 0.98 ± 0.031 | 0.973 ± 0.045 | 0.976 ± 0.022 | 0.853 ± 0.051 | 0.755 ± 0.0033 | 0.954 ± 0.023 | 0.939 ± 0.028 | 1.02 ± 0.019 | 0.997 ± 0.069 | 1.01 ± 0.028 | 1.02 ± 0.027 | 0.922 ± 0.011 | 0.851 ± 0.026
3 | CAL72 BONE | 1.14 ± 0.086 | 1.12 ± 0.046 | 1.14 ± 0.088 | 1.12 ± 0.062 | 1.16 ± 0.069 | 1.18 ± 0.12 | 1.01 ± 0.13 | 0.613 ± 0.051 | 1.01 ± 0.015 | 1.06 ± 0.03 | 1.03 ± 0.011 | 1.03 ± 0.021 | 0.955 ± 0.021 | 0.97 ± 0.0097 | 0.897 ± 0.026 | 0.811 ± 0.026
4 | CAL120 BREAST | 0.968 ± 0.014 | 0.984 ± 0.028 | 1.01 ± 0.023 | 1.01 ± 0.024 | 0.9848 ± 0.0086 | 0.984 ± 0.028 | 0.866 ± 0.024 | 0.753 ± 0.049 | 1.01 ± 0.029 | 1.02 ± 0.013 | 1.03 ± 0.02 | 1.04 ± 0.011 | 1.02 ± 0.022 | 1 ± 0.015 | 0.946 ± 0.046 | 0.87 ± 0.018
5 | CASKI CERVIX | 0.944 ± 0.077 | 0.98 ± 0.096 | 0.988 ± 0.014 | 1.01 ± 0.019 | 1.026 ± 0.0064 | 1.08 ± 0.063 | 0.985 ± 0.073 | 0.956 ± 0.073 | 0.925 ± 0.041 | 0.982 ± 0.035 | 0.963 ± 0.019 | 0.989 ± 0.07 | 0.91 ± 0.047 | 0.855 ± 0.057 | 0.759 ± 0.04 | 0.625 ± 0.037
6 | CHLA90 AUTONOMIC GANGLIA | 0.984 ± 0.039 | 0.999 ± 0.043 | 0.954 ± 0.05 | 1 ± 0.077 | 0.972 ± 0.049 | 0.939 ± 0.051 | 1.05 ± 0.043 | 1.04 ± 0.034 | 1.03 ± 0.052 | 1.07 ± 0.045 | 0.994 ± 0.07 | 1.08 ± 0.07 | 0.979 ± 0.0078 | 0.999 ± 0.068 | 1 ± 0.11 | 0.966 ± 0.041
7 | CME SYNOVIAL | 1.28 ± 0.14 | 1.25 ± 0.12 | 1.18 ± 0.092 | 1.17 ± 0.3 | 1.22 ± 0.076 | 1.1 ± 0.038 | 0.847 ± 0.074 | 0.91 ± 0.029 | 1.35 ± 0.097 | 1.44 ± 0.15 | 1.25 ± 0.042 | 1.28 ± 0.13 | 1.11 ± 0.085 | 1.02 ± 0.054 | 0.689 ± 0.11 | 0.388 ± 0.014
8 | COLO320DM LARGE INTESTINE | 1.16 ± 0.058 | 1.1 ± 0.077 | 1.05 ± 0.053 | 1.1 ± 0.18 | 1.17 ± 0.033 | 1.1 ± 0.072 | 1.14 ± 0.067 | 1.11 ± 0.068 | 1.04 ± 0.11 | 1.06 ± 0.12 | 1.05 ± 0.13 | 1.07 ± 0.059 | 1.04 ± 0.033 | 1.09 ± 0.037 | 1.03 ± 0.056 | 0.99 ± 0.015
9 | DU4475 BREAST | 1.02 ± 0.26 | 1.12 ± 0.21 | 0.991 ± 0.23 | 0.994 ± 0.17 | 0.935 ± 0.22 | 1.06 ± 0.16 | 0.912 ± 0.2 | 0.994 ± 0.26 | 1.12 ± 0.23 | 1.08 ± 0.011 | 0.951 ± 0.13 | 1.18 ± 0.12 | 0.794 ± 0.22 | 1.12 ± 0.36 | 1.31 ± 0.55 | 1.05 ± 0.23
